Data as given in US20030044413A1, “Methods of limiting apoptosis of cells” (Regents of the University of Minnesota, priority 1998, published 2003).
Values joined by “and” are separate entries in the source; they are usually repeats but may differ in a detail not shown here. Identical values can stand only once. “Also recorded” adds a separate entry of the source.

Columns and labels:
[1] = system: HuH-7 cells; assay: TGF-β1-induced apoptosis, Hoechst staining, HuH-7 cells; type: cell-based, human
Method: Incubation of cells with ethanol, TGF-β1, anti-Fas antibody or okadaic acid. Freshly isolated rat hepatocytes were cultured for 3 h as described above and then incubated with William's E medium supplemented with either 0.5% ethanol, 50 μM UDCA, ethanol plus UDCA, or no addition (control) for 2 h and 4 h. HuH-7 cells were incubated with Dulbecco's medium supplemented with either 1 nM TGF-β1 (R & D Systems, Minneapolis, Minn.), 100 μM UDCA, TGF-β1+UDCA, or no addition (control) for 24 h, 48 h, and 72 h. Hep G2 cells were incubated with Dulbecco's medium supplemented with either 0.5 μg/ml of anti-Fas antibody CH-11 (Upstate Biotechnology, Inc., Lake Placid, N.Y.), 100 μM UDCA, CH-11+UDCA, or no addition for 48 h. Both HuH-7 cells and human osteogenic sarcoma Saos-2 cells were cultured in Dulbecco's medium supplemented with either 50 nM okadaic acid (Boehringer Mannheim Biochemicals, Inc, Indianapolis, Ind.), 100 μM UDCA, okadaic acid+UDCA, or no addition for 48 h. In all the combination groups, cells were pretreated with UDCA alone for 60 min prior to addition of ethanol, TGF-β1, anti-Fas antibody or okadaic acid.
HuH-7 cells were treated with 1 nM TGF-β1, 100 μM of either hyodeoxycholic acid, taurocholic acid, tauroursodeoxycholic acid (Sigma Chemical Co.) or glycoursodeoxycholic acid (Steraloids Inc., Wilton, N.H.), or a combination of TGF-β1 plus the individual bile acids for 72 h. HeLa and Cos-7 cells were incubated with 50 nM okadaic acid, 100 μM of either tauroursodeoxycholic acid or glycoursodeoxycholic acid, or a combination of okadaic acid plus the individual bile acids for 24 h. In the combination groups, cells were pretreated with the bile acid alone for 60 min prior to incuation with TGF-β1 or okadaic acid. In all studies, the medium was gently removed at the indicated times and scored for nonviable cells. The attached cells were fixed for morphologic evaluation of apoptosis.
Morphological evaluation of apoptosis. […] Fluorescence was visualized with a Zeiss standard fluorescence microscope (Carl Zeiss, Inc., Thornwood, N.Y.). Photographs were taken with Kodak Ektar-1000 film (Eastman Kodak Co.). Stained nuclei were scored by blind analysis and categorized according to the condensation and staining characteristics of chromatin. Normal nuclei were identified as noncondensed chromatin dispersed over the entire nucleus. Apoptotic nuclei were identified by condensed chromatin, contiguous to the nuclear membrane, as well as nuclear fragmentation of condensed chromatin. Three fields per dish of approximately 500 nuclei were counted; mean values are expressed as the percent of apoptotic nuclei.

[2] = system: isolated rat liver mitochondria; assay: MPT spectrophotometric assay (mitochondrial swelling); conditions: for mitochondrial swelling with the substance alone: substance alone added to isolated mitochondria; for effect on DCA-induced MPT / mitochondrial swelling: preincubation (500 μM bile acid or cyclosporine A) before DCA
Method: Isolation of mitochondria and MPT assays. Low calcium liver mitochondria were isolated from male 200-250 g Sprague-Dawley rats by density gradient centrifugation as previously published (Botla et al., J. Pharmacol. Exp. Ther., 272, 930-938 (1995); Walajtys-Rhode et al., J. Biol. Chem., 267, 370-379 (1992); and Sokol et al., Gastroenterology, 99, 1061-1071 (1990)). The mitochondrial fraction was resuspended in 30 ml of wash buffer containing 0.1 M KCl, 5 mM 3-(N-morpholino)-propane sulfonic acid (MOPS), and 1 mM EGTA, at pH 7.4 and centrifuged at 7,000×g for 10 min at 4° C. A final wash was carried out in chelex-100-treated buffer (Bio-Rad Laboratories, Hercules, Calif.) containing no EGTA. The resulting pellet was suspended in 4 ml of chelex--100-treated buffer containing 125 mM sucrose, 5 mM HEPES, 50 mM KCl and 2 mM KH2PO4. The usual yield of mitochondria was approximately 25 mg of protein per gram of liver tissue. Mitochondrial purity was established as previously described (Botla et al., J. Pharmacol. Exp. Ther., 272, 930-938 (1995)). Protein concentrations were determined using the Bio-Rad protein assay kit as specified by the manufacturer.
MPT was measured spectrophotometrically as described previously (Botla et al., J. Pharmacol. Exp. Ther., 272, 930-938 (1995); Pastorino et al., J. Biol. Chem., 268, 13791-13798 (1993)), during 10 min incubations at 25° C. using mitochondria (1 mg of protein/ml) suspended in 3 ml of a chelex-100-treated buffer containing 0.1 M NaCl, 10 mM MOPS, pH 7.4. Swelling was monitored at 540 nm in a Beckman DU 64 spectrophotometer. Basal values of mitochondria absorbance were measured for 5 min, and the optical density was monitored another 5 min after addition of 200 μM DCA or 80 μM phenylarsine oxide (PhAsO; Sigma Chemical Co.). For coincubation studies, mitochondria were preincubated with 500 μM UDCA or hyodeoxycholic acid for 5 min at 25° C. prior to the assay.
Spectrophotometric and Fluorimetric Assays of MPT. The MPT was assessed using a spectrophotometric assay measuring high amplitude rapid changes in mitochondrial volume, and a fluorimetric assay quantitating the release of calcein from calcein-loaded mitochondria. The MPT was measured spectrophotometrically as previously described (Pastorino, J. Biol. Chem., 268, 13791-13798 (1993); Botla et al., J. Pharmacol. Exp. Ther., 272, 930-938 (1995)). Briefly, mitochondria (3 mg protein) were incubated in 3 ml of chelex-100-treated respiration buffer (0.1 M NaCl, 10 mM MOPS, pH 7.4) for 10 min at 25° C. and monitored at 540 nm in a Beckman DU 64 spectrophotometer. Basal values of mitochondrial absorbance were measured for 5 min, and the optical density was monitored for an additional 5 min after addition of increasing concentrations of DCA (50-200 μM) or 80 μM phenylarsine oxide (PhAsO; Sigma Chemical Co., St. Louis, Mo.). For the coincubation studies, mitochondria were preincubated with UDCA (100-500 μM), or 500 μM hyodeoxycholic acid (HDCA; Sigma Chemical Co.) for 5 min at 25° C. prior to initiation of the assay.
Measurement of MPT and determination of cytochrome c content in supernatants and mitochondrial pellets after MPT. The MPT was assessed using a spectrophotometric assay measuring high amplitude rapid changes in mitochondria volume. Mitochondria (1 mg protein) were incubated in 1 ml of chelex-100-treated respiration buffer (0.1 M NaCl, 10 mM MOPS, pH 7.4) for 10 min at 25° C. and swelling was monitored at 540 nm in a Beckman DU 64 spectrophotometer. Malate and glutamate (1 mM) were added to initiate respiration, and 3 min later rotenone (5 μM), an inhibitor of complex I of the respiratory chain, was also added to the supension. Basal values of mitochondria absorbance were measured for 5 min, and the optical density was monitored for an additional 5 min after addition 200 μM DCA or 80 μM phenylarsine oxide (PhAsO; Sigma Chemical Co.). […]

[3] = 1 nM TGF-β1, 100 μM bile acid, 72 h

For C[C@H](CCC(=O)O)[C@H]1CC[C@H]2[C@@H]3[C@@H](O)C[C@@H]4C[C@H](O)CC[C@]4(C)[C@H]3CC[C@]12C [UDCA, ursodeoxycholic acid], the “decrease of TGF-β1 apoptosis” value ([1]; 1 nM TGF-β1, 100 μM bile acid, 24 h) was “approximately 49%”, the “decrease of TGF-β1 apoptosis” value ([1]; 1 nM TGF-β1, 100 μM bile acid, 48 h) was roughly 44% and the “decrease of TGF-β1 apoptosis” value [1, 3] was roughly 45%. The “Inhibition % Apoptosis” value ([1]; inducer TGF-β1, HuH-7, inhibition by UDCA) was 44.2 ± 11.2%, the swelling ([2]; 100 μM UDCA 5 min before 200 μM DCA) was 26.8±6.3% and the “inhibition of DCA-induced MPT (mitochondrial swelling)” value ([2]; 200 μM DCA, pretreatment 500 μM UDCA or 5 μM cyclosporine A) was > 40% and 43.1±1.6%. For the same compound, the swelling ([2]; 500 μM UDCA 5 min before 200 μM DCA) was 16.9±2.3%.
“TGF-β1: transforming growth factor β1, nonmembrane damaging inducer of apoptosis” was tested, and the induction of apoptosis ([1]; 1 nM TGF-β1) was “significant apoptosis” and the “mitochondrial swelling with the substance alone” value [2] was “did not induce mitochondria swelling”.
C[C@H](CCC(=O)O)[C@H]1CC[C@H]2[C@@H]3C[C@H](O)[C@@H]4C[C@H](O)CC[C@]4(C)[C@H]3CC[C@]12C [hyodeoxycholic acid] was tested, and the “inhibition of TGF-β1-induced apoptosis” value [1, 3] was “did not; also recorded: neither hyodeoxycholic acid nor taurocholic acid showed inhibition”, the “effect on DCA-induced MPT / mitochondrial swelling” value [2] was “nor did it have a protective effect” and the “effect on DCA-induced MPT / mitochondrial swelling” value ([2]; listed as HDCA) was “did not decrease DCA-induced mitochondrial swelling”. The “mitochondrial swelling with the substance alone” value [2] was “No significant mitochondrial swelling”.
For C=C1[C@@H](O)[C@@H]2O[C@]3(CC[C@H](/C=C/[C@@H](C)[C@@H]4CC(C)=C[C@@]5(O[C@H](C[C@@](C)(O)C(=O)O)CC[C@H]5O)O4)O3)CC[C@H]2O[C@@H]1[C@@H](O)C[C@H](C)[C@H]1O[C@@]2(CCCCO2)CC[C@H]1C [okadaic acid], the “mitochondrial swelling with the substance alone” value [2] was “did not induce mitochondria swelling”.
With C[C@H](CCC(=O)O)[C@H]1CC[C@H]2[C@@H]3CC[C@@H]4C[C@H](O)CC[C@]4(C)[C@H]3C[C@H](O)[C@]12C [DCA, deoxycholic acid] the “concentration at which high amplitude mitochondrial swelling was detected (as low as)” value [2] was 50 µM and the “MPT, increase over control” value ([2]; 50 μM DCA) was 4 fold.
